Values quoted from earlier work in patent publication US8034766B2 (priority 2006, dated 2011).

System: prion
Conditions: in vivo

CC(=O)OO [Peracetic acid, peracetic acid]
onward transmission rate following treatment: 100%
